This series is described as follows: Aqueous solubility of compound. In kind it is physicochemical. To be noted: buffer.
`COc1ccc2[nH]c(=O)c(S(C)(=O)=O)c(CCc3ccccc3)c2c1`: the solubility result is “Insoluble”.

As to `CS(=O)(=O)c1c(CCc2ccccc2)c2cc(OCC(=O)Nc3ccccc3)ccc2[nH]c1=O`, the solubility result was “Insoluble”.

On to `CS(=O)(=O)c1c(CCc2ccccc2)c2cc(OCC(=O)NCC3CC3)ccc2[nH]c1=O`, for which the solubility entry was “Insoluble”.

As to `CN(Cc1ccc(Cl)c(Cl)c1)C(=O)COc1ccc2[nH]c(=O)c(S(C)(=O)=O)c(CCc3ccccc3)c2c1`, the solubility entry is reported as “Insoluble”.

Regarding `CS(=O)(=O)c1c(CCc2ccccc2)c2cc(OCC(=O)NCc3ccc(Cl)c(Cl)c3)ccc2[nH]c1=O`, the solubility entry is recorded as “Insoluble”.

For the compound `Cn1c(=O)c(S(C)(=O)=O)c(CCc2ccccc2)c2cc(OCC(=O)NCc3ccc(Cl)c(Cl)c3)ccc21`, the solubility entry was “Insoluble”.

In the case of `COCCCNC(=O)COc1ccc2[nH]c(=O)c(S(C)(=O)=O)c(CCc3ccccc3)c2c1`, the solubility entry is recorded as “Insoluble”.

Regarding `CS(=O)(=O)c1c(CCc2ccccc2)c2cc(OCC(=O)NCc3ccccc3)ccc2[nH]c1=O`, the solubility result is given as “Insoluble”.

These data come from ChEMBL document CHEMBL1287765, “Discovery of novel quinolinone adenosine A2B antagonists” (Bioorg Med Chem Lett, 2010).
